According to patent US7008950B1, “Benzofurans as suppressors of neurodegeneration” (Takeda Chemical Industries, Ltd., priority 1997, dated 2006):

system: human neuroblastoma SK—N—SH cells; assay: Cell protective activity against β-amyloid 25-35-induced neurotoxicity (Alamar Blue cell viability); type: cell-based; settings: test compound 1 μM with β-amyloid 25-35 10 μM; rhIFN-γ-pretreated SK—N—SH cells; viability by Alamar Blue after 3 days; [(A−B)/(C−B)]×100
Excerpt: Evaluation of cell protective activity against β-amyloid neurotoxicity in human neuroblastoma SK—N—SH cells.
• Human neuroblastoma SK—N—SH cells: obtained from American Type Tissue Culture Collection (ATCC). DMEM/F-12 medium: obtained from Nikken Biological Medicine Laboratory Co. • Ca^++ and Mg^++ free phosphate-buffered saline (PBS(−)): obtained Nikken Biological Medicine Laboratory Co. • N2 supplement™, and EDTA solution: obtained from Gibco BRL Co. • Fetal calf serum, and mixture of penicillin (5000 U/mL) and streptomycin (5 mg/mL): obtained from Bio Whittaker Co. • Recombinant human interferon gamma (rhIFN-γ): obtained from Wako Pure Chemical Co. • Alamar Blue™ reagent: obtained from AccuMed International, Inc. • Culture flasks: manufactured by Falcon Co. Collagen-coated, 96-well multi-plate: manufactured by Iwaki Glass Co. • β-amyloid 25-35: obtained from Bachem AG. • Other reagents: commercially-available special-grade chemicals. b) Test Method (1) Cultivation of SK—N—SH cells
SK—N—SH cells were sub-cultured in DMEM/F12 medium containing 5% FCS, 0.5% N2 supplement™, 1% of mixture of penicillin (5000 U/mL) and streptomycin (5 mg/mL), under 10 t CO2 and 90% air, using CO2 incubator. At sub-confluent condition, cells were harvested from culture flask with PBS(−) containing 2.5 mM EDTA, and plated at a density of 1.0×10^4 cells/100 μl of culture medium/well in collagen-coated 96-well multi-plate. The next day, 80 μl of culture medium was substituted with DMEM/F12 medium (containing neither FCS nor N2 supplement) containing 1.25 ng/mL of rhIFN-γ, and after 24 hr cultivation cells were used for cell toxicity assay mentioned below.
(2) Measurement of cell protective activity of test compounds against β-amyloid 25-35-induced neurotoxicity
After pretreatment of SK—N—SH cells with rhIFN-γ in collagen-coated 96 well multi-plate, cell toxicity assay was started by addition of β-amyloid 25-35 and test compound. Briefly, 80 μl of culture medium was removed, and 40 μl of β-amyloid 25-35 and 40 μl of test compound were added to cultures at the same time. The final concentrations of β-amyloid 25-35 and test compounds were 10 μM and 1 μM, respectively.
The test compound was dissolved at 10 mM in dimethylsulfoxide (DMSO) and diluted in DMEM/F12 medium. β-amyloid 25-35 was dissolved at 5 mM in sterile pure water, and stored at −80° C. Immediately before use, the stock solution β-amyloid 25-35 was diluted in DMEM/F12 medium and sonicated.
(3) Evaluation of cell protective activity of test compound
Cell viability was assessed by the reduction of Alamar Blue™ reagents, 3 days after starting of the cell toxicity assay. Briefly, 20 μl of culture medium was substituted with 20 μl of Alamar Blue™ reagents and incubated 4 hours. Absorbances were determined at wavelengths of 570 nm and 600 nm using a plate reader (MTP-32 Micro-plate Reader, manufactured by Corona Co.). Amount of reduced Alamar Blue reagents was determined by subtracting absorbance600 from absorbance570. The cell protective activity of the test compound was estimated according to the following equation: • Cell protective activity of compound [(A−B)/(C−B)]×100 (%) 20 where; • A: cell viability of the group treated with both the test compound and β-amyloid • B: cell viability of the group treated with β-amyloid only • C: cell viability of the control group Results
Cell viability of the group treated with both the test compound and β-amyloid was compared with that 30 group treated with β-amyloid only using Dunnett's test.
Cell viability of each group was determined using at least 4 culture well.

Compound | Cell Protecting Activity (%)
Cc1c(C)c2c(c(C)c1OCc1ccccc1)C(c1ccc(C(C)C)cc1)C(C)(C)O2 (stereo not shown) [Example 1, 5-Benzyloxy-3-(4-isopropylphenyl)-2,2,4,6,7-pentamethyl-2,3-dihydrobenzofuran] | 30.7%
Cc1c(C)c2c(c(C)c1OCc1ccccc1)C(c1ccc(N(C)C)cc1)C(C)(C)O2 (stereo not shown) [Example 2, 5-Benzyloxy-3-[4-(dimethylamino)phenyl]-2,2,4,6,7-pentamethyl-2,3-dihydrobenzofuran] | 27.9%
Cc1c(C)c2c(c(C)c1OCc1ccccc1)CC(C)(CN1CCN(c3ccccc3)CC1)O2 (stereo not shown) [Example 3, 5-Benzyloxy-2,4,6,7-tetramethyl-2-(4-phenyl-1-piperazinyl)methyl-2,3-dihydrobenzofuran] | 39.4%
COc1ccc(COc2c(C)c(C)c3c(c2C)C(c2ccc(N4CCOCC4)cc2)C(C)(C)O3)cc1 (stereo not shown) [Example 7, 5-(4-Methoxybenzyloxy)-3-[4-(4-morpholinyl)phenyl]-2,2,4,6,7-pentamethyl-2,3-dihydrobenzofuran] | 27.3%
Cc1c(C)c2c(c(C)c1OCC=Cc1ccccc1)C(c1ccc(C(C)C)cc1)C(C)(C)O2 (stereo not shown) [Example 12, 3-(4-Isopropylphenyl)-2,2,4,6,7-pentamethyl-5-(3-phenyl-2-propen-1-yloxy)-2,3-dihydrobenzofuran] | 44.8%
Cc1c(C)c2c(c(C)c1OCCC(c1ccccc1)c1ccccc1)C(c1ccc(C(C)C)cc1)C(C)(C)O2 (stereo not shown) [Example 14, 5-(3,3-Diphenylpropyloxy)-3-(4-isopropylphenyl)-2,2,4,6,7-pentamethyl-2,3-dihydrobenzofuran] | 44.2%
Cc1c(C)c2c(c(C)c1OCCc1ccccc1)C(c1ccc(C(C)C)cc1)C(C)(C)O2 (stereo not shown) [Example 25, 3-(4-Isopropylphenyl)-2,2,4,6,7-pentamethyl-5-(2-phenylethyl)oxy-2,3-dihydrobenzofuran] | 47.0%
